According to the supplement of paper PMC8092582:

Test system: HeLa
Assay: cell viability (CellTiter-Glo) relative to median of lowest-dilution wells of all drugs (fraction); higher = more viable cells
Protocol: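 HeLa control and CRISPR DDX11 knockout cells were seeded in 384-well plates and incubated for 72 h with each of 64 […] drugs at six concentrations. Viability was read with CellTiter-Glo and normalised to the median of the lowest (6th) dilution wells of all drugs. Two biological replicates (BR1, BR2) are averaged; the concentration unit is not stated.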

COCC[n+]1c2c(n(Cc3cnccn3)c1C)C(=O)c1ccccc1C2=O [YM155 (Sepantronium bromide)]
Conditions | cell viability
drug concentration (unit not stated): 0.01, genotype: DDX11 knockout | 0.0145
drug concentration (unit not stated): 0.01, genotype: control (DDX11 wild type) | 0.015
drug concentration (unit not stated): 0.04, genotype: DDX11 knockout | 0.0143
drug concentration (unit not stated): 0.04, genotype: control (DDX11 wild type) | 0.0164
drug concentration (unit not stated): 0.12, genotype: DDX11 knockout | 0.0146
drug concentration (unit not stated): 0.12, genotype: control (DDX11 wild type) | 0.0177
drug concentration (unit not stated): 0.37, genotype: DDX11 knockout | 0.0135
drug concentration (unit not stated): 0.37, genotype: control (DDX11 wild type) | 0.0166
drug concentration (unit not stated): 1.11, genotype: DDX11 knockout | 0.0136
drug concentration (unit not stated): 1.11, genotype: control (DDX11 wild type) | 0.0158
